Laboratory results taken from patent US8673889B2, “BLT2-mediated disease, BLT2 binding agent and the compound” (Ono Pharmaceutical Co., Ltd., priority 2004, dated 2014).

Target: T1, BLT2 (Homo sapiens, UniProt Q9NPC1)
T1 sequence (Q9NPC1 1-358): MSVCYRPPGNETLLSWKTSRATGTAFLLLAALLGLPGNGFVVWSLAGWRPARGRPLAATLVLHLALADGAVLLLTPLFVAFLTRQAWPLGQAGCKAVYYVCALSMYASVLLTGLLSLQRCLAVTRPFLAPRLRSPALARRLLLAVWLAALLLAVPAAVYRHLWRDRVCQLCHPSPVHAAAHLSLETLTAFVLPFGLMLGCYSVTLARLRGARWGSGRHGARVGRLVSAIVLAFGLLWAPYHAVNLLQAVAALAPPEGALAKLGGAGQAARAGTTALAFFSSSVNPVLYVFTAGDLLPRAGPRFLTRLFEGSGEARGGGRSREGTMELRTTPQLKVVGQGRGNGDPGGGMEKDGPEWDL
Assay: Evaluation of BLT2 agonistic activity by monitoring the variation of intracellular Ca2+ concentration
Type: cell-based
Parameters: expressed in transfected cells
Details: classification of the compounds (1) to (46)

| SMILES | BLT2 agonistic activity |
| --- | --- |
| CCCCN(Cc1ccc(-c2ccccc2-c2nnn[nH]2)cc1)C(=O)NCCN1CCOCC1 [(45), N-butyl-N′-(2-morpholin-4-ylethyl)-N-{[2′-(1H-tetrazol-5-yl)biphenyl-4-yl]methyl}urea] | BLT2 agonistic activity |
| CCCCNC(=O)N(CCCC)Cc1ccc(-c2ccccc2-c2nnn[nH]2)cc1 [(11), N,N′-dibutyl-N-{[2′-(1H-tetrazol-5-yl)biphenyl-4-yl]methyl}urea] | BLT2 agonistic activity |
| CCCCN(Cc1ccc(-c2ccccc2-c2nnn[nH]2)cc1)C(=O)Nc1ccc(OC)cc1 [(17), N-butyl-N′-(4-methoxyphenyl)-N-{[2′-(1H-tetrazol-5-yl)biphenyl-4-yl]methyl}urea] | BLT2 agonistic activity |
| CCCCN(Cc1ccc(-c2ccccc2-c2nnn[nH]2)cc1)C(=O)Nc1ccc(C)cc1 [(20), N-butyl-N′-(4-methylphenyl)-N-{[2′-(1H-tetrazol-5-yl)biphenyl-4-yl]methyl}urea] | BLT2 agonistic activity |
| CCCCN(Cc1ccc(-c2ccccc2-c2nnn[nH]2)cc1)C(=O)Nc1ccccc1 [(13), N-butyl-N′-phenyl-N-{[2′-(1H-tetrazol-5-yl)biphenyl-4-yl]methyl}urea] | BLT2 agonistic activity |
| CCCCN(Cc1ccc(-c2ccccc2-c2nnn[nH]2)cc1)C(=O)NCc1ccccc1 [(22), N′-benzyl-N-butyl-N-{[2′-(1H-tetrazol-5-yl)biphenyl-4-yl]methyl}urea] | BLT2 agonistic activity |
| CCCCN(Cc1ccc(-c2ccccc2-c2nnn[nH]2)cc1)C(=O)Nc1cccc(C(=O)OCC)c1 [(19)] | BLT2 agonistic activity |
| CCCCN(Cc1ccc(-c2ccccc2-c2nnn[nH]2)cc1)C(=O)NC(C)C [(7), N-butyl-N′-isopropyl-N-{[2′-(1H-tetrazol-5-yl)biphenyl-4-yl]methyl}urea] | BLT2 agonistic activity |
| CCCCN(Cc1ccc(-c2ccccc2-c2nnn[nH]2)cc1)C(=O)NCC1CCCO1 (stereo not drawn) [(43), N-butyl-N′-(tetrahydrofuran-2-ylmethyl)-N-{[2′-(1H-tetrazol-5-yl)biphenyl-4-yl]methyl}urea] | BLT2 agonistic activity |
| CCCCN(Cc1ccc(-c2ccccc2-c2nnn[nH]2)cc1)C(=O)NCCc1ccccc1 [(5), N-butyl-N′-(2-phenylethyl)-N-{[2′-(1H-tetrazol-5-yl)biphenyl-4-yl]methyl}urea] | BLT2 agonistic activity |
| CCCCN(Cc1ccc(-c2ccccc2-c2nnn[nH]2)cc1)C(=S)NCC(=O)OC [(10), methyl N-[(butyl {[2′-(1H-tetrazol-5-yl)biphenyl-4-yl]methyl}amino)carbonothioyl]glycinate] | BLT2 agonistic activity |
| CCCCN(Cc1ccc(-c2ccccc2-c2nnn[nH]2)cc1)C(=O)NC1CCCCC1 [(12), N-butyl-N′-cyclohexyl-N-{[2′-(1H-tetrazol-5-yl)biphenyl-4-yl]methyl}urea] | BLT2 agonistic activity |
| CCCCN(Cc1ccc(-c2ccccc2-c2nnn[nH]2)cc1)C(=O)NC(=O)OCC [(34), ethyl[(butyl{[2′-(1H-tetrazol-5-yl)biphenyl-4-yl]methyl}amino)carbonyl]carbamate] | BLT2 agonistic activity |
| CCCCN(Cc1ccc(-c2ccccc2-c2nnn[nH]2)cc1)C(=O)Nc1sc2c(c1C(=O)O)CCCC2 [(40), 2-{[(butyl{[2′-(1H-tetrazol-5-yl)biphenyl-4-yl]methyl}amino)carbonyl]amino}-4,5,6,7-tetrahydro-1-benzothiophen-3-carboxylic acid] | BLT2 agonistic activity |
| CCCCN(Cc1ccc(-c2ccccc2-c2nnn[nH]2)cc1)C(=O)Nc1ccc(F)c(F)c1 [(30), N-butyl-N′-(3,4-difluorophenyl)-N-{[2′-(1H-tetrazol-5-yl)biphenyl-4-yl]methyl}urea] | BLT2 agonistic activity |
